Experimental data taken from ChEMBL document CHEMBL5131467, “Multivalent peptide dendrimers inhibit the fusion of viral-cellular membranes and the cellular NF-κB signaling pathway” (Eur J Med Chem, 2022).
Calls of active or inactive are those of the source. No cut-off for these calls is given here. Where a SMILES comes first, the peptide text is derived from it. Bridges are numbered along the chain shown (N, C = ends). Roman numbers before positions name the chains, in order. Side-chain parts run from the residue outwards. The star is where a group is joined. Fmoc = O=C(OCC1c2ccccc2-c2ccccc21)*

Key:
Influenza A virus [1] = test: Antiviral activity against Influenza A virus (A/Puerto Rico/8/1934(H1N1)) infected in MDCK cells assessed as reduction in HA mRNA level at 1 ug/ml measured after 24 hrs post infection by qRT-PCR analysis; format: functional, organism-based; settings: dose 1.0 µg/ml
Influenza A virus [2] = test: Antiviral activity against Influenza A virus (A/Puerto Rico/8/1934(H1N1)) infected in MDCK cells assessed as reduction in virus induced cytopathic effect during infection incubated for 1 hr by MTT assay; format: functional, organism-based
Influenza A virus [3] = test: Antiviral activity against Influenza A virus (A/Puerto Rico/8/1934(H1N1)) infected in MDCK cells assessed as reduction in viral nucleoprotein expression level at 2 ug/ml pretreated with compound measured after 24 hrs post infection by indirect immunofluorescence assay; format: functional, organism-based; settings: dose 2.0 µg/ml
[4] = Cytotoxicity against MDCK cells by CCK-8 assay; format: toxicity, cell-based, Canis lupus familiaris; settings: dog
Influenza A virus [5] = test: Antiviral activity against Influenza A virus (A/Puerto Rico/8/1934(H1N1)) infected in MDCK cells after treatment incubated for 1 hr by MTT assay; format: functional, organism-based
RAW264.7 [6] = test: Anti-inflammatory activity against mouse RAW264.7 cells assessed as reduction in influenza A virus induced IL-6 level at 1 ug/ml by qRT- PCR; format: functional, cell-based; settings: dose 1.0 µg/ml
Influenza A virus [7] = test: Antiviral activity against Influenza A virus 699(H3) clinical isolate infected in MDCK cells incubated for 1 hr by MTT assay; format: functional, organism-based
RAW264.7 [8] = test: Anti-inflammatory activity against LPS induced mouse RAW264.7 cells assessed as suppression of NF kappa B expression level at 1.5 ug/ml by luciferase reporter assay; format: functional, cell-based; settings: dose 1.5 µg/ml
RAW264.7 [9] = test: Anti-inflammatory activity against mouse RAW264.7 cells assessed as reduction in LPS induced IL-1 beta level at 1 ug/ml by qRT-PCR analysis; format: functional, cell-based; settings: dose 1.0 µg/ml
RAW264.7 [10] = test: Anti-inflammatory activity against mouse RAW264.7 cells assessed as reduction in LPS induced TNF alpha level at 1 ug/ml by qRT-PCR analysis; format: functional, cell-based; settings: dose 1.0 µg/ml
[11] = Tmax in Kunming mouse at 10 mg/kg, ip by HPLC analysis; format: ADME, organism-based; settings: in vivo
Hemagglutinin = Hemagglutinin (Influenza A virus, UniProt B4URE7); test: Binding affinity to Influenza A Puerto Rico/8/1934/H1N1 hemagglutin assessed as dissociation constant by surface plasmon resonance assay
[12] = Selectivity index, ratio of CC50 for MDCK cells to IC50 antiviral activity against Influenza A virus (A/Puerto Rico/8/1934(H1N1)) infected in MDCK cells assessed as reduction in virus induced cytopathic effect pre-treated with virus; format: toxicity, cell-based; settings: dog, read-out: Selectivity Index
Influenza A virus [13] = test: Antiviral activity against Influenza A virus (A/Puerto Rico/8/1934(H1N1)) infected in MDCK cells assessed as reduction in virus induced cytopathic effect pretreated with compound incubated for 1 hrs by MTT assay; format: functional, organism-based
RAW264.7 [14] = test: Anti-inflammatory activity against mouse RAW264.7 cells assessed as reduction in LPS induced TNF alpha level at 1 ug/ml by ELISA method; format: functional; settings: dose 1 µg/ml
Influenza A virus [15] = test: Antiviral activity against Influenza A virus (A/Puerto Rico/8/1934(H1N1)) infected in MDCK cells assessed as reduction in M1 mRNA level at 1 ug/ml measured after 24 hrs post infection by qRT-PCR analysis; format: functional, organism-based; settings: dose 1.0 µg/ml
Influenza A virus [16] = test: Antiviral activity against influenza A/Thailand/Kan353/2004 infected in MDCK cells assessed as inhibition of syncytium formation at 5 ug/ml incubated for 3 hrs by giemsa staining based assay relative to control; format: functional; set-up: scale not given: the % may be the effect or the level left; settings: dose 5 µg/ml
Mus musculus [17] = test: Antiviral activity against Kunming mouse infected with Influenza A virus (A/Puerto Rico/8/1934(H1N1)) assessed as reduction in viral titer in lung homogenate at 1.25 mg/kg, ip administered twice a day for 3 days after 24 hrs of viral infection; format: functional, organism-based; settings: time 3.0 day
Influenza A virus [18] = test: Antiviral activity against Influenza A virus A/Aichi/2/68(H3N2) infected in MDCK cells incubated for 1 hr by MTT assay; format: functional, organism-based
RAW264.7 [19] = test: Anti-inflammatory activity against mouse RAW264.7 cells assessed as reduction in Influenza A virus (A/Puerto Rico/8/1934(H1N1)) induced TNF alpha level at 5 ug/ml by ELISA method; format: functional; settings: dose 5 µg/ml
Influenza A virus [20] = test: Antiviral activity against Influenza A Puerto Rico/8/1934/H1N1 infected in human A549 cells assessed as inhibition of viral replication after 24 hrs by hemagglutination assay; format: functional, organism-based
Influenza A virus [21] = test: Induction of morphological changes in Influenza A Puerto Rico/8/1934/H1N1 assessed as increase in broken edge of the virus incubated for 30 mins by transmission electron microscopic analysis; format: functional, organism-based; settings: dose 10-50 µg/ml, DDE = dose-dependent effect
RAW264.7 [22] = test: Cytotoxicity against mouse RAW264.7 cells assessed as cell viability at lesser than 100 ug/ml by CCK-8 assay; format: toxicity, cell-based; settings: dose < 100 µg/ml
Influenza A virus [23] = test: Antiviral activity against Influenza A virus (A/Puerto Rico/8/1934(H1N1)) infected in MDCK cells assessed as reduction in viral nucleoprotein expression level at 2 ug/ml during infection measured after 24 hrs post infection by indirect immunofluorescence assay; format: functional, organism-based; settings: dose 2.0 µg/ml
[24] = Cmax in Kunming mouse at 10 mg/kg, ip by HPLC analysis; format: ADME, organism-based; set-up: dose 10 mg/kg, route ip; settings: in vivo
RAW264.7 [25] = test: Anti-inflammatory activity against mouse RAW264.7 cells assessed as reduction in LPS induced TNF alpha level at 5 ug/ml by ELISA method; format: functional; settings: dose 5 µg/ml
Influenza A virus [26] = test: Antiviral activity against Influenza A virus (A/Puerto Rico/8/1934(H1N1)) infected in MDCK cells assessed as reduction in virus induced cytopathic effect pre-treated with virus followed by cell infection for 1 hr by MTT assay; format: functional, organism-based
Influenza A virus [27] = test: Antiviral activity against Influenza A virus (A/Puerto Rico/8/1934(H1N1)) infected in MDCK cells assessed as reduction in viral nucleoprotein expression level at 2 ug/ml pre-treated with virus measured after 24 hrs post infection by indirect immunofluorescence assay; format: functional, organism-based; settings: dose 2.0 µg/ml
Influenza A virus [28] = test: Antiviral activity against influenza A/Thailand/Kan353/2004 infected in MDCK cells assessed as inhibition of syncytium formation at 2.5 ug/ml incubated for 3 hrs by giemsa staining based assay relative to control; format: functional; set-up: scale not given: the % may be the effect or the level left; settings: dose 2.5 µg/ml
RAW264.7 [29] = test: Anti-inflammatory activity against mouse RAW264.7 cells assessed as reduction in Influenza A virus (A/Puerto Rico/8/1934(H1N1)) induced TNF alpha level at 1 ug/ml by ELISA method; format: functional; settings: dose 1 µg/ml
Influenza A virus [30] = test: Antiviral activity against Influenza A virus A/FM/1/47 infected in MDCK cells incubated for 1 hr by MTT assay; format: functional, organism-based; settings: A/FM/1/47, MDCK
RAW264.7 [31] = test: Anti-inflammatory activity against Influenza A virus (A/Puerto Rico/8/1934(H1N1)) s induced mouse RAW264.7 cells assessed as suppression of NF kappa B expression level 1.5 ug/ml by luciferase reporter assay; format: functional, cell-based; settings: dose 1.5 µg/ml
[32] = AUC in Kunming mouse at 10 mg/kg, ip by HPLC analysis; format: ADME, organism-based; set-up: dose 10 mg/kg, route ip; settings: in vivo
Mus musculus [33] = test: Antiviral activity against Kunming mouse infected with Influenza A virus (A/Puerto Rico/8/1934(H1N1)) assessed as survival rate at 5 mg/kg, ip administered twice a day with a time interval of 12 hrs for 4 days relative to control; format: functional; settings: 96 h, time 4 day

Chain of Hemagglutinin (B4URE7 whole entry): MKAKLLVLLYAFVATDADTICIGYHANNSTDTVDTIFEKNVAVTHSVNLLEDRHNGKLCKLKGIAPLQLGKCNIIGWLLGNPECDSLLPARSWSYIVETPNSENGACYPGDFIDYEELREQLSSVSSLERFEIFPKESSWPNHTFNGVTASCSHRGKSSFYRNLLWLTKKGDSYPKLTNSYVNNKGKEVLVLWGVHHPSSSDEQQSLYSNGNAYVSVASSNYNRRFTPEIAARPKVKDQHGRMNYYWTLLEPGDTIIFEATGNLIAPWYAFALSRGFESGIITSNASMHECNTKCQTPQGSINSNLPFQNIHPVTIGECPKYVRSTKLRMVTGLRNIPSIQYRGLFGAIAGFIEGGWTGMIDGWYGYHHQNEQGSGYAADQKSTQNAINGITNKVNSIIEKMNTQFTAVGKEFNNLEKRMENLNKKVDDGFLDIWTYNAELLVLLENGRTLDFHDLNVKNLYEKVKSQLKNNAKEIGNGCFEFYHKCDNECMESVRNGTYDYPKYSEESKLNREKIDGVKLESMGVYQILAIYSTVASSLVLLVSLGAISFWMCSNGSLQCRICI

In the case of NCCCC[C@H](NC(=O)OCC1c2ccccc2-c2ccccc21)C(=O)N[C@@H](CCCCN)C(=O)N[C@@H](Cc1c[nH]c2ccccc12)C(=O)N[C@@H](CCCCN)C(=O)NCCCC[C@H](NC(=O)[C@H](CCCCN)NC(=O)[C@H](Cc1c[nH]c2ccccc12)NC(=O)[C@H](CCCCN)NC(=O)[C@H](CCCCN)NC(=O)OCC1c2ccccc2-c2ccccc21)C(=O)NCCCC[C@H](NC(=O)[C@H](CCCCNC(=O)[C@H](CCCCN)NC(=O)[C@H](Cc1c[nH]c2ccccc12)NC(=O)[C@H](CCCCN)NC(=O)[C@H](CCCCN)NC(=O)OCC1c2ccccc2-c2ccccc21)NC(=O)[C@H](CCCCN)NC(=O)[C@H](Cc1c[nH]c2ccccc12)NC(=O)[C@H](CCCCN)NC(=O)[C@H](CCCCN)NC(=O)OCC1c2ccccc2-c2ccccc21)C(=O)NCC(=O)O (I: Fmoc-KKWKK([Lys-Trp-Lys-Lys-Fmoc])KG-OH / II: Fmoc-KKWKK([Lys-Trp-Lys-Lys-Fmoc]); amide I:6-II:C), the Activity (Influenza A virus [1]) is reported as “Active”, the IC50 (Influenza A virus [2]) is reported as 310 nM and the Activity (Influenza A virus [3]) is reported as “Active”. For the same compound, the CC50 [4] was 37800 nM, the IC50 (Influenza A virus [5]) was 320 nM and the Activity (RAW264.7 [6]) was “Active”. The IC50 (Influenza A virus [7]) was 120 nM, the Activity (RAW264.7 [8]) was “Active” and the Activity (RAW264.7 [9]) was “Active”. The Activity (RAW264.7 [10]) was “Active”, the Tmax [11] was 1.03 h and the Kd (Hemagglutinin) was 0.00665 nM. It also gave a selectivity ratio [12] of 150, an IC50 (Influenza A virus [13]) of 240 nM and an Activity (RAW264.7 [14]) of 250.5 pg/mL. For the same compound, the Activity (Influenza A virus [15]) was “Active”, the Activity (Influenza A virus [16]) was 90% and the Activity (Mus musculus [17]) was “Active”. The IC50 (Influenza A virus [18]) was 240 nM, the Activity (RAW264.7 [19]) was 328.4 pg/mL and the Activity (Influenza A virus [20]) was “Active”. The Activity (Influenza A virus [21]) was “Dde”, the Activity (RAW264.7 [22]) was “Non-Toxic” and the Activity (Influenza A virus [23]) was “Active”. For the same compound, the Cmax [24] was 5020 ng/mL, the Activity (RAW264.7 [25]) was 280.5 pg/mL and the IC50 (Influenza A virus [26]) was 280 nM. For the same compound, the Activity (Influenza A virus [27]) was “Active”, the Activity (Influenza A virus [28]) was 63% and the Activity (RAW264.7 [29]) was 203 pg/mL. For the same compound, the IC50 (Influenza A virus [30]) was 170 nM, the Activity (RAW264.7 [31]) was “Active” and the AUC [32] was 11900 ng·h/mL. It also gave a survival at 5 mg/kg (Mus musculus [33]) of 33%.
